The values below come from ChEMBL document CHEMBL1122816, “Synthesis and activity of 5-(aminomethylene)-1,3-cyclohexanediones: enolic analogues of gamma-aminobutyric acid” (J Med Chem, 1985).

In one assay the target is GABA B receptor (Rattus norvegicus, UniProt O88871+Q9Z0U4). In words: Displacement of [3H]baclofen from Gamma-aminobutyric acid type B receptor in rat brain membranes. It is filed as cell membranes. Background: In a radioligand displacement assay an active substance lowers the binding of a labelled ligand.
Chain of GABA B receptor (Q9Z0U4 whole entry): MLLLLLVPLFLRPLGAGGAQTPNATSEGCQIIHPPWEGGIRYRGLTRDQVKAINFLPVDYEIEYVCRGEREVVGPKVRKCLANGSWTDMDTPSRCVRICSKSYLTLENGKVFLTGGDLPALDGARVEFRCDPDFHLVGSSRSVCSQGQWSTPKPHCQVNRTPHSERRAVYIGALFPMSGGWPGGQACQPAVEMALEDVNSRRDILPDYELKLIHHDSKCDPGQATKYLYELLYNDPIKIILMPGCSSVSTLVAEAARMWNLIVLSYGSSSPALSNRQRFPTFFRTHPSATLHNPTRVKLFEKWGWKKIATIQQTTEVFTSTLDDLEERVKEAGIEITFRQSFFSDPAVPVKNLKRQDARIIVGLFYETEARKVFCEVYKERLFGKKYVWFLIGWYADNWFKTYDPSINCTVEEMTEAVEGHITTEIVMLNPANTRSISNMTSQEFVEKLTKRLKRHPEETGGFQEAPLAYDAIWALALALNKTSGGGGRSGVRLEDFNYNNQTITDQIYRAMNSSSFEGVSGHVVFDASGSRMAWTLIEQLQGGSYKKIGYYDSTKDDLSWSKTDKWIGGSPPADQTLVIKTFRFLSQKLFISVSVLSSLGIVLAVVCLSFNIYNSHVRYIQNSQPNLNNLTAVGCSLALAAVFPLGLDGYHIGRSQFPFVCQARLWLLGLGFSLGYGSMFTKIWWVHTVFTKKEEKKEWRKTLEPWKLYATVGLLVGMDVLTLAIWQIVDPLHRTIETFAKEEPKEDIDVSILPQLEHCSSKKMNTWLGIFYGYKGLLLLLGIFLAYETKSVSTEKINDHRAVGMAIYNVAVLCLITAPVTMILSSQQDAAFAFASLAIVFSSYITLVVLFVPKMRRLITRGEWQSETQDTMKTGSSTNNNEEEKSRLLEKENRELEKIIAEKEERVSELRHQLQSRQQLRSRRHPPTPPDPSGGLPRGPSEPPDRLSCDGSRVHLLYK
Chain of GABA B receptor (O88871 whole entry): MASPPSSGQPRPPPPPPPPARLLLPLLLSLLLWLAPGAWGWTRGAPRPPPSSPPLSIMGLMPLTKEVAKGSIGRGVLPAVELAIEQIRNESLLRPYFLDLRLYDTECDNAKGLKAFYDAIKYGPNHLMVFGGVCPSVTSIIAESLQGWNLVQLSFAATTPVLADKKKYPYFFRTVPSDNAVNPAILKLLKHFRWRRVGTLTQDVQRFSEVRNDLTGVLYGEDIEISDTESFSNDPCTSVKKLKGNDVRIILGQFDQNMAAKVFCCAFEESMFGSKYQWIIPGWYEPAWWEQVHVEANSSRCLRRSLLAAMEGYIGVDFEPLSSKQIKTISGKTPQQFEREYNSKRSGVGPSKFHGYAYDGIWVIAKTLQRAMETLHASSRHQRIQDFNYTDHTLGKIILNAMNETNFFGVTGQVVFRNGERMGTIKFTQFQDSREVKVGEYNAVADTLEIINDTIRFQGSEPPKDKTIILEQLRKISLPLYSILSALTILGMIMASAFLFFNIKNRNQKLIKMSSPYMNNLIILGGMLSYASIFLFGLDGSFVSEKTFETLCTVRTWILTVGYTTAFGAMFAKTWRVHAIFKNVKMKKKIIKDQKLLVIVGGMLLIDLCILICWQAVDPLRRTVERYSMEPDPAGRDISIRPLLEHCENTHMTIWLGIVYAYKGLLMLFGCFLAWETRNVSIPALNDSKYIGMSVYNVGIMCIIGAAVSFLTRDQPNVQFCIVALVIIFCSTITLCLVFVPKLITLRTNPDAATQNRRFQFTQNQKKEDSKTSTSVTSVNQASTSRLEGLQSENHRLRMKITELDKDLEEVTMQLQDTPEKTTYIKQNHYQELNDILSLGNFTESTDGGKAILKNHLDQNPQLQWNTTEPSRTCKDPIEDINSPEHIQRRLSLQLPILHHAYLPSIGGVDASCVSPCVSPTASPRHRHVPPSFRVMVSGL
The target of assay [1] is GABA-A receptor; anion channel. In words: Displacement of [3H]GABA from Gamma-aminobutyric acid A (GABA-A) receptor in rat brain membranes. It is filed as cell membranes.
For a further assay, the species on record is Rattus norvegicus. In words: The inhibitory concentration of compound against sodium dependent [3H]GABA synaptosomal uptake in rats. In kind it is functional.

As usually defined, the IC50 is the concentration needed to halve the response being measured. Low values mean greater potency in that assay, high ones weaker potency in that assay.

As for `NCC1CC(=O)C=C(O)C1` (stereo not drawn), the IC50 was over 100 µM at GABA B receptor, 65 µM in assay [1] and over 100 µM in the assay filed under Rattus norvegicus.

On to `NCC(CC(=O)O)c1ccc(Cl)cc1` (stereo not drawn) [BACLOFEN], for which the half-inhibitory concentration (IC50) in assay [1] was 0.03 µM; in the assay filed under Rattus norvegicus it was 1.8 µM.

For the molecule `O=C(O)C1CCCNC1` (stereo not drawn) [NIPECOTIC ACID], the IC50 on GABA B receptor was over 100 µM; in assay [1], over 100 µM; in the assay listed under Rattus norvegicus, 5.6 µM.
